PubChem BioAssay AID2060883 (Molecular Pharmacology Branch, DTP, NCI, 2025)

Test system: 843782-103-R-J1-PDC complex spheroid viability
Assay: Anticancer human tumor 843782-103-R-J1-PDC patient-derived lung adenocarcinoma cell line growth inhibition [RAS]
Settings: for IC50: curve of first compound; for viability, T/C: stronger effect = lower value; active = viability on the fitted dose curve at most 10% of control; inactive = the rest
Outline: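 Agents were tested in combination matrices in half-log decrements from a top concentration at or near clinical Cmax (10 microM if undetermined). Targets were multi-cell spheroids of tumour lines plus HUVEC and MSC stromal cells.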
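Note: viability read after seven days of compound exposure.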

C=CC(=O)N1CCN(c2nc(OCC3CCCN3C)nc3c(F)c(-c4nc(N)cc(C)c4C(F)(F)F)c(Cl)cc23)C(C)C1 (centres undefined) + CCn1c(-c2cc(N3CCN(C)CC3)cnc2C(C)OC)c2c3cc(ccc31)-c1csc(n1)CC(NC(=O)C1CC1C)C(=O)N1CCCC(N1)C(=O)OCC(C)(C)C2
> 1000 nM: IC50 (second compound 0.000949 µM) | IC50 (second compound 0.003 µM)
inactive: viability, T/C (second compound 0.000949 µM, first compound 0.00316 µM) 64.2% | viability, T/C (second compound 0.000949 µM, first compound 0.01 µM) 64.9% | viability, T/C (second compound 0.000949 µM, first compound 0.0316 µM) 62.9% | viability, T/C (second compound 0.000949 µM, first compound 0.1 µM) 66.8% | viability, T/C (second compound 0.000949 µM, first compound 0.316 µM) 71.8% | viability, T/C (second compound 0.000949 µM, first compound 1 µM) 67.1% | viability, T/C (second compound 0.003 µM, first compound 0.00316 µM) 57.2% | viability, T/C (second compound 0.003 µM, first compound 0.01 µM) 56.5% | viability, T/C (second compound 0.003 µM, first compound 0.0316 µM) 55% | viability, T/C (second compound 0.003 µM, first compound 0.1 µM) 55.4% | viability, T/C (second compound 0.003 µM, first compound 0.316 µM) 55.2% | viability, T/C (second compound 0.003 µM, first compound 1 µM) 60.8% | viability, T/C (second compound 0.00949 µM, first compound 0.00316 µM) 33.6% | viability, T/C (second compound 0.00949 µM, first compound 0.01 µM) 38.1% | viability, T/C (second compound 0.00949 µM, first compound 0.0316 µM) 36.3% | viability, T/C (second compound 0.00949 µM, first compound 0.1 µM) 37.1% | viability, T/C (second compound 0.00949 µM, first compound 0.316 µM) 37% | viability, T/C (second compound 0.00949 µM, first compound 1 µM) 35.8% | viability, T/C (second compound 0.03 µM, first compound 0.00316 µM) 20.3% | viability, T/C (second compound 0.03 µM, first compound 0.01 µM) 23.1% | viability, T/C (second compound 0.03 µM, first compound 0.0316 µM) 19.3% | viability, T/C (second compound 0.03 µM, first compound 0.1 µM) 23.8% | viability, T/C (second compound 0.03 µM, first compound 0.316 µM) 22.7% | viability, T/C (second compound 0.03 µM, first compound 1 µM) 21.6% | viability, T/C (second compound 0.0949 µM, first compound 0.00316 µM) 15.4% | viability, T/C (second compound 0.0949 µM, first compound 0.01 µM) 13.7% | viability, T/C (second compound 0.0949 µM, first compound 0.0316 µM) 16.6% | viability, T/C (second compound 0.0949 µM, first compound 0.1 µM) 20% | viability, T/C (second compound 0.0949 µM, first compound 0.316 µM) 17.4% | viability, T/C (second compound 0.0949 µM, first compound 1 µM) 16.4% | viability, T/C (second compound 0.3 µM, first compound 0.00316 µM) 14.6% | viability, T/C (second compound 0.3 µM, first compound 0.01 µM) 14.5% | viability, T/C (second compound 0.3 µM, first compound 0.0316 µM) 14.8% | viability, T/C (second compound 0.3 µM, first compound 0.1 µM) 14.9% | viability, T/C (second compound 0.3 µM, first compound 0.316 µM) 14.5% | viability, T/C (second compound 0.3 µM, first compound 1 µM) 13.4%
< 3.16 nM: IC50 (second compound 0.00949 µM) | IC50 (second compound 0.03 µM) | IC50 (second compound 0.0949 µM) | IC50 (second compound 0.3 µM)

CC1(C)CCC(Nc2ncc(C(F)(F)F)c(-c3c[nH]c4c(P(C)(C)=O)c(C#N)ccc34)n2)CN1 (centres undefined) + CCn1c(-c2cc(N3CCN(C)CC3)cnc2C(C)OC)c2c3cc(ccc31)-c1csc(n1)CC(NC(=O)C1CC1C)C(=O)N1CCCC(N1)C(=O)OCC(C)(C)C2
inactive: viability, T/C (second compound 0.000949 µM, first compound 0.000949 µM) 72.5% | viability, T/C (second compound 0.000949 µM, first compound 0.003 µM) 68.5% | viability, T/C (second compound 0.000949 µM, first compound 0.00949 µM) 32.6% | viability, T/C (second compound 0.000949 µM, first compound 0.03 µM) 14.2% | viability, T/C (second compound 0.000949 µM, first compound 0.0949 µM) 12% | viability, T/C (second compound 0.000949 µM, first compound 0.3 µM) 11.8% | viability, T/C (second compound 0.003 µM, first compound 0.000949 µM) 60.5% | viability, T/C (second compound 0.003 µM, first compound 0.003 µM) 46.6% | viability, T/C (second compound 0.003 µM, first compound 0.00949 µM) 22.8% | viability, T/C (second compound 0.003 µM, first compound 0.03 µM) 14.1% | viability, T/C (second compound 0.003 µM, first compound 0.0949 µM) 11.1% | viability, T/C (second compound 0.003 µM, first compound 0.3 µM) 11% | viability, T/C (second compound 0.00949 µM, first compound 0.000949 µM) 39.2% | viability, T/C (second compound 0.00949 µM, first compound 0.003 µM) 29.3% | viability, T/C (second compound 0.00949 µM, first compound 0.00949 µM) 18.7% | viability, T/C (second compound 0.00949 µM, first compound 0.03 µM) 10.5% | viability, T/C (second compound 0.00949 µM, first compound 0.0949 µM) 12.1% | viability, T/C (second compound 0.00949 µM, first compound 0.3 µM) 10.9% | viability, T/C (second compound 0.03 µM, first compound 0.000949 µM) 20.1% | viability, T/C (second compound 0.03 µM, first compound 0.003 µM) 21.7% | viability, T/C (second compound 0.03 µM, first compound 0.00949 µM) 14.5% | viability, T/C (second compound 0.03 µM, first compound 0.03 µM) 12.2% | viability, T/C (second compound 0.03 µM, first compound 0.0949 µM) 10.5% | viability, T/C (second compound 0.0949 µM, first compound 0.000949 µM) 18.7% | viability, T/C (second compound 0.0949 µM, first compound 0.003 µM) 18.2% | viability, T/C (second compound 0.0949 µM, first compound 0.00949 µM) 14.1% | viability, T/C (second compound 0.0949 µM, first compound 0.03 µM) 12.2% | viability, T/C (second compound 0.0949 µM, first compound 0.0949 µM) 10.3% | viability, T/C (second compound 0.3 µM, first compound 0.000949 µM) 14.5% | viability, T/C (second compound 0.3 µM, first compound 0.003 µM) 14.3% | viability, T/C (second compound 0.3 µM, first compound 0.00949 µM) 11.9% | viability, T/C (second compound 0.3 µM, first compound 0.03 µM) 11.7% | viability, T/C (second compound 0.3 µM, first compound 0.0949 µM) 11.5% | viability, T/C (second compound 0.3 µM, first compound 0.3 µM) 10.1%
5.42 nM: IC50 (second compound 0.000949 µM)
active: viability, T/C (second compound 0.03 µM, first compound 0.3 µM) 9.54% | viability, T/C (second compound 0.0949 µM, first compound 0.3 µM) 10.3%
< 0.949 nM: IC50 (second compound 0.00949 µM) | IC50 (second compound 0.03 µM) | IC50 (second compound 0.0949 µM) | IC50 (second compound 0.3 µM)
2.24 nM: IC50 (second compound 0.003 µM)
